Measured values published in BindingDB's records for doi:10.1021/jm00049a020 (Pharmacia-Farmitalia Carlo Erba, 1994).

Biological target: T1, Neutrophil elastase (Homo sapiens, UniProt P08246)
T1 sequence (P08246 whole entry): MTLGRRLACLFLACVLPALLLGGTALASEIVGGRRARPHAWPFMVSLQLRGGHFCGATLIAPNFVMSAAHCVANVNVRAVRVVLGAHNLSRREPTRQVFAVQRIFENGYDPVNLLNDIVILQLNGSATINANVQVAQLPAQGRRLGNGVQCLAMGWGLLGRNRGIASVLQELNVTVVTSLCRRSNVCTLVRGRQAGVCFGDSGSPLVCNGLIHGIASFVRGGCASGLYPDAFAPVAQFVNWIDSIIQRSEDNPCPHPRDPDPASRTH
Experiment: Tested for the rate constant against Human Leukocyte Elastase (HLE) inactivation
Conditions: read-out: kon (M-1-s-1)

CO[C@H]1C(=O)N2C(C(=O)N3CCCC3C(=O)O)=C(COC(C)=O)CS(=O)(=O)[C@H]12 (stereo partly drawn) [1-(3-Acetoxymethyl-7-methoxy-5,5,8-trioxo-5lambda*6*-thia-1-aza-bicyclo[4.2.0]oct-2-ene-2-carbonyl)-pyrrolidine-2-carboxylic acid(L-658,758)]
kon: 1800 M⁻¹ s⁻¹
